Measured values taken from patent publication US9352010B2, “Treatment of HIV-1 infection and AIDS” (The J. David Gladstone Institutes, priority 2011, dated 2016).

Key:
[1] = test system: CD4 T cells in HIV-1 (NL4-3)-infected HLACs; assay: CD4 T-cell death in HIV-1-infected HLACs, viable CD4 T cells by flow cytometry; assay type: cell-based, human; details: FIG. 15, 4 different donors
caspase-1 and caspase-3 = assay: Intracellular caspase activity after spinoculation with NL4-3; assay type: cell-based, human; details: AZT 5 μM, efavirenz 100 nM, T20 10 μg/ml, 3 days
Method: HLACs were subjected to intracellular analysis of caspases activity and cytokine expression 3 days after spinoculation with NL4-3. Intracellular caspase-1, -3, -6, -8, and -9 activities were analyzed with a CaspaLux1 E1D2, Phiphilux G1D2, CaspaLux6 J1D2, CaspaLux 8 L1D2, and CaspaLux 9 M1D2 kits (OncoImmunin), respectively, at 37° C. for 15 min, followed by staining with PE anti-CD4, and APC anti-CD8, at 4° C. for 15 min. For annexin V analysis, cells were stained with APC-conjugated annexin V together with PE anti-CD4, FITC anti-CD8, and with 0.5 μg/ml ethidium monoazide (E-1374, Molecular Probes) for 15 min at 4° C. For intracellular cytokine capture, cells were incubated with 2 μM protein transport inhibitor GolgiStop (BD Biosciences) containing monensin, and 5 μg/ml Brefeldin A (EMD biosciences) at 37° C. for 6 hours before analysis. Cells were then stained with anti-CD4 and anti-CD8 antibodies at 4° C. for 15 min, and fixed in 1% paraformaldehyde at 4° C. for 1 hour. Fixed cells were washed extensively with PBS and were stained in 0.2% saponin buffer (PBS+2% FBS+0.2% saponin) containing PE anti-human TNFα (R&D Systems), FITC anti-human IFNβ (PBL Biomedical laboratories), PE anti-human IL-1β (BD Biosciences), or APC anti-phosphorylated p53 at serine 37 (pS37) at 4° C. for 1 hour.

Compound	death of infected CD4 T-cells [1]	activation of caspase-1 and caspase-3 in abortively infected CD4 T-cells (caspase-1 and caspase-3)
c1cc(CN2CCCNCCNCCCNCC2)ccc1CN1CCCNCCNCCCNCC1 [AMD3100]	inhibit the death of infected CD4 T-cells	
O=C1Nc2ccc(Cl)cc2[C@@](C#CC2CC2)(C(F)(F)F)O1 [efavirenz]	inhibit the death of infected CD4 T-cells	prevented activation of these caspases
enfuvirtide		prevented activation of these caspases
